Measurements from ChEMBL document CHEMBL1201862, “PubChem BioAssay data set” (2004).
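Step 1: Grow cells in 96-well plates. Step 2: Expose to compound for 48 hours at 5 concentrations. Step 3: Interpolate endpoints linearly; if unreached, use highest concentration. GI50: concentration for 50% inhibition of growth.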 Active and inactive are the calls of the source. Rule as the data show it: active = GI50 up to about 1.1 µM and inactive = higher.

Tests used:
Experiment in all cases: inhibition of tumour cell growth, NCI panel, 48 h
HT-29 = system: HT-29
SF-295 = system: SF-295
CCRF-CEM = system: CCRF-CEM
HCT-15 = system: HCT-15
SF-539 = system: SF-539
A498 = system: A498
COLO 205 = system: COLO 205
SNB-19 = system: SNB-19
SNB-75 = system: SNB-75
NCI-H226 = system: NCI-H226
UACC-62 = system: UACC-62
786-0 = system: 786-0
OVCAR-5 = system: OVCAR-5
U-251 = system: U-251
Malme-3M = system: Malme-3M
DU-145 = system: DU-145
MDA-MB-231 = system: MDA-MB-231
Hs-578T = system: Hs-578T
MDA-MB-435 = system: MDA-MB-435

Compound | GI50 (HT-29) | GI50 (SF-295) | GI50 (CCRF-CEM) | GI50 (HCT-15) [µM] | GI50 (SF-539) | GI50 (A498) | GI50 (COLO 205) | GI50 (SNB-19) | GI50 (SNB-75) | GI50 (NCI-H226) | GI50 (UACC-62) | GI50 (786-0) | GI50 (OVCAR-5) | GI50 (U-251) | GI50 (Malme-3M) | GI50 (DU-145) | GI50 (MDA-MB-231) | GI50 (Hs-578T) | GI50 (MDA-MB-435)
Cc1cccc(NC(=O)C(=O)C2C(=O)NC(=O)NC2=O)c1C | > 100 µM (inactive) | > 100 µM (inactive) | > 100 µM (inactive) | > 100 | > 100 µM (inactive) | > 100 µM (inactive) | > 100 µM (inactive) | > 100 µM (inactive) | > 100 µM (inactive) | > 100 µM (inactive) | > 100 µM (inactive) | > 100 µM (inactive) | > 100 µM (inactive) | > 100 µM (inactive) | > 100 µM (inactive) |  |  |  | 
O=C(Nc1ccccc1SC(/C=C/NNC1=NN=C(c2ccccc2)C(c2ccccc2)N1)c1ccccc1)c1ccc(Cl)cc1Cl (stereo unspecified) | > 100 µM (inactive) | 25.6 µM (inactive) | 48.8 µM (inactive) | 36 | 23.3 µM (inactive) | 43.5 µM (inactive) | > 100 µM (inactive) | 80 µM (inactive) | 52.4 µM (inactive) | 31.4 µM (inactive) | 36.8 µM (inactive) | 37.9 µM (inactive) | 44.8 µM (inactive) | 25.6 µM (inactive) | > 100 µM (inactive) |  |  |  | 
CCC1(O)CN(CCOC)[C@H]2C[C@@H]1C(=O)c1[nH]c3ccccc3c12 (stereo partly specified) | > 100 µM (inactive) | > 100 µM (inactive) | > 100 µM (inactive) | > 100 | > 100 µM (inactive) | > 100 µM (inactive) | > 100 µM (inactive) | > 100 µM (inactive) | > 100 µM (inactive) | > 100 µM (inactive) |  | > 100 µM (inactive) | > 100 µM (inactive) | > 100 µM (inactive) | > 100 µM (inactive) | > 100 µM (inactive) | > 100 µM (inactive) | > 100 µM (inactive) | > 100 µM (inactive)
COC(=O)C1C(=O)O[C@@H](c2ccc(OC)cc2OC)C1C(=O)OC (stereo partly specified) | > 100 µM (inactive) | > 100 µM (inactive) | > 100 µM (inactive) | > 100 | > 100 µM (inactive) | > 100 µM (inactive) | > 100 µM (inactive) | > 100 µM (inactive) | > 100 µM (inactive) | > 100 µM (inactive) | > 100 µM (inactive) | > 100 µM (inactive) | > 100 µM (inactive) | > 100 µM (inactive) | > 100 µM (inactive) |  |  |  | 
CCN(CC)CCNc1ccc(C)c2sc3ccc(O)cc3c(=O)c12 | 1.58 µM (inactive) | 0.27 µM (active) | 0.0991 µM (active) | 0.923 | 1.15 µM (inactive) | 1.33 µM (inactive) | 1.62 µM (inactive) | 1.82 µM (inactive) | 1.05 µM (active) | 0.466 µM (active) | 0.986 µM (active) | 0.655 µM (active) | 4.1 µM (inactive) | 1.09 µM (active) | 1.15 µM (inactive) |  |  |  | 
COC(=O)c1ccc(/C=C/S(=O)(=O)c2ccccc2)cc1 | > 100 µM (inactive) | > 100 µM (inactive) | > 100 µM (inactive) | > 100 | > 100 µM (inactive) | > 100 µM (inactive) | > 100 µM (inactive) | > 100 µM (inactive) | 67.6 µM (inactive) | > 100 µM (inactive) | > 100 µM (inactive) | > 100 µM (inactive) | > 100 µM (inactive) | > 100 µM (inactive) | > 100 µM (inactive) |  |  |  | 
CCC1(CN(C)C)CC/C(=C\c2ccc3c(c2)OCO3)C1=O (stereo unspecified) | 65.2 µM (inactive) | > 100 µM (inactive) | 48.6 µM (inactive) | > 100 | > 100 µM (inactive) | > 100 µM (inactive) | > 100 µM (inactive) | > 100 µM (inactive) | > 100 µM (inactive) | > 100 µM (inactive) | > 100 µM (inactive) | > 100 µM (inactive) | > 100 µM (inactive) | > 100 µM (inactive) | > 100 µM (inactive) |  |  |  | 
Cc1ccccc1-c1c(N)nc(NC#N)nc1C(=O)Nc1ccccc1 | > 100 µM (inactive) | > 100 µM (inactive) | > 100 µM (inactive) | > 100 | > 100 µM (inactive) | > 100 µM (inactive) | > 100 µM (inactive) | > 100 µM (inactive) | 76.4 µM (inactive) | > 100 µM (inactive) | > 100 µM (inactive) | > 100 µM (inactive) | > 100 µM (inactive) | > 100 µM (inactive) | > 100 µM (inactive) |  |  |  | 
CCc1c(-c2coc(CC/C(C)=C/c3ccccc3)n2)oc(OC)c(C)c1=O | 24.8 µM (inactive) | 1.77 µM (inactive) | 14.9 µM (inactive) | 18.7 | 28 µM (inactive) | 99.8 µM (inactive) | 21.5 µM (inactive) | 23.1 µM (inactive) | 49.4 µM (inactive) | 68.2 µM (inactive) | 17.6 µM (inactive) | 18.1 µM (inactive) | > 100 µM (inactive) | 29 µM (inactive) | > 59.8 µM (inactive) |  |  |  | 
Oc1ccc2ccccc2c1OCc1nnc(CCCCCCCCc2nnc(COc3c(O)ccc4ccccc34)o2)o1 | > 100 µM (inactive) | > 100 µM (inactive) |  | > 100 |  | > 100 µM (inactive) | > 100 µM (inactive) | > 100 µM (inactive) | > 100 µM (inactive) | > 100 µM (inactive) | > 100 µM (inactive) | 83 µM (inactive) | > 100 µM (inactive) | 35.7 µM (inactive) | > 100 µM (inactive) | > 100 µM (inactive) | 34.8 µM (inactive) |  | > 100 µM (inactive)
CC(=O)Nc1ccc(C2C(C(=O)Nc3ccccc3C)=C(C)NC(C)=C2C(=O)Nc2ccccc2C)cc1 | > 100 µM (inactive) | > 100 µM (inactive) | > 100 µM (inactive) | > 100 | > 100 µM (inactive) | > 100 µM (inactive) | > 100 µM (inactive) | > 100 µM (inactive) | > 61.2 µM (inactive) | > 100 µM (inactive) | > 92.3 µM (inactive) | > 100 µM (inactive) | > 100 µM (inactive) | > 100 µM (inactive) | > 100 µM (inactive) |  |  |  | 
c1cc2c(ncc3cscc32)s1 | > 100 µM (inactive) | > 100 µM (inactive) | > 100 µM (inactive) | > 100 | > 100 µM (inactive) | 51.1 µM (inactive) | > 100 µM (inactive) | > 100 µM (inactive) | > 52.6 µM (inactive) | > 61.7 µM (inactive) | > 31.6 µM (inactive) | > 100 µM (inactive) | > 89.5 µM (inactive) | > 87.3 µM (inactive) | > 100 µM (inactive) | > 100 µM (inactive) | > 100 µM (inactive) | > 100 µM (inactive) | > 100 µM (inactive)
C=C1c2nc3ccccc3n2C=C(c2ccc(Cl)cc2)N1c1ccc(OC)cc1 |  | 6.19 µM (inactive) | > 100 µM (inactive) | 10.1 | 5.87 µM (inactive) | 20.6 µM (inactive) | 21.8 µM (inactive) | 3.44 µM (inactive) | 2.67 µM (inactive) | 5.46 µM (inactive) | 13 µM (inactive) | 4.39 µM (inactive) | 17.4 µM (inactive) | 8.38 µM (inactive) | 2.82 µM (inactive) | 15.6 µM (inactive) | 12.7 µM (inactive) |  | 8.28 µM (inactive)
NC(=O)C(=O)N/N=C(\CC1(O)C(=O)Nc2ccccc21)c1ccc2ccccc2c1 (stereo unspecified) | 34.4 µM (inactive) | 37.9 µM (inactive) | 20.3 µM (inactive) | 24.5 | 48.9 µM (inactive) | 17.9 µM (inactive) | 22.8 µM (inactive) | 22.9 µM (inactive) | 40.6 µM (inactive) | 41.4 µM (inactive) | 19.8 µM (inactive) | 36.5 µM (inactive) | > 100 µM (inactive) | 25.9 µM (inactive) | 61.7 µM (inactive) |  |  |  | 
CCOc1ccc2c(c1)[n+]([O-])c(-c1nc3ccccc3s1)c(N)[n+]2[O-] | 58.7 µM (inactive) | 50 µM (inactive) | 48 µM (inactive) | 49.5 | 43.1 µM (inactive) | 61.8 µM (inactive) | > 100 µM (inactive) | 48.1 µM (inactive) | 57.4 µM (inactive) | 45.4 µM (inactive) | 64.7 µM (inactive) | 48.4 µM (inactive) | > 100 µM (inactive) | 46.7 µM (inactive) | > 100 µM (inactive) |  |  |  | 
COc1ccc(NC(=O)CC(=O)N/N=C/c2ccc(N(CCC#N)S(C)(=O)=O)cc2)cc1 | > 100 µM (inactive) | > 100 µM (inactive) | > 100 µM (inactive) | > 100 | > 100 µM (inactive) | > 100 µM (inactive) | > 100 µM (inactive) |  | > 100 µM (inactive) | > 100 µM (inactive) | > 100 µM (inactive) | > 100 µM (inactive) | > 100 µM (inactive) | > 100 µM (inactive) | > 100 µM (inactive) |  |  |  | 
CC#CCCCC1(C)CCNC1=S (stereo unspecified) | > 10 µM (inactive) | > 10 µM (inactive) | > 10 µM (inactive) | > 10 | > 10 µM (inactive) |  |  | > 10 µM (inactive) | > 10 µM (inactive) | > 10 µM (inactive) |  | > 10 µM (inactive) | > 10 µM (inactive) | > 10 µM (inactive) | > 10 µM (inactive) | > 10 µM (inactive) |  | > 10 µM (inactive) | > 10 µM (inactive)
CC(=O)C(=CNc1c(C)n(C)n(-c2ccccc2)c1=O)C(C)=O |  | > 100 µM (inactive) | > 100 µM (inactive) | > 100 | > 100 µM (inactive) | > 100 µM (inactive) | > 100 µM (inactive) | > 100 µM (inactive) | > 100 µM (inactive) | > 100 µM (inactive) | > 100 µM (inactive) | > 100 µM (inactive) | > 100 µM (inactive) | > 100 µM (inactive) | > 100 µM (inactive) | > 100 µM (inactive) | > 100 µM (inactive) |  | > 100 µM (inactive)
